Assay results reported in PubChem BioAssay (NCI).
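Method: 48-hour compound exposure of cells in 96-well plates, five concentrations, linear interpolation of endpoints. GI50 marks 50% less growth. TGI denotes the concentration required for complete inhibition of growth.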

How the values were obtained:
Experiment in all cases: DTP human tumour cell line panel, 48 h
HCC-2998 colon = tested on: HCC-2998 colon
COLO 205 colon = tested on: COLO 205 colon
NCI/ADR-RES ovarian = tested on: NCI/ADR-RES ovarian
MDA-MB-435 = tested on: MDA-MB-435
HOP-62 NSCLC = tested on: HOP-62 NSCLC
SW-620 colon = tested on: SW-620 colon
SNB-75 CNS = tested on: SNB-75 CNS
HT29 colon = tested on: HT29 colon
SN12C renal = tested on: SN12C renal
MOLT-4 leukemia = tested on: MOLT-4 leukemia
MDA-MB-231 breast = tested on: MDA-MB-231 breast
NCI-H23 lung = tested on: NCI-H23 lung
CAKI-1 renal = tested on: CAKI-1 renal
M14 melanoma = tested on: M14 melanoma
SK-MEL-28 melanoma = tested on: SK-MEL-28 melanoma
OVCAR-4 ovarian = tested on: OVCAR-4 ovarian
SF-268 CNS = tested on: SF-268 CNS
PC-3 prostate = tested on: PC-3 prostate
HOP-92 NSCLC = tested on: HOP-92 NSCLC
UACC-62 melanoma = tested on: UACC-62 melanoma
NCI-H522 lung = tested on: NCI-H522 lung
ACHN renal = tested on: ACHN renal
LOX IMVI melanoma = tested on: LOX IMVI melanoma
HCT-15 colon = tested on: HCT-15 colon
HS 578T breast = tested on: HS 578T breast
786-0 renal = tested on: 786-0 renal
T-47D breast = tested on: T-47D breast
NCI-H460 lung = tested on: NCI-H460 lung
MALME-3M melanoma = tested on: MALME-3M melanoma
DU-145 prostate = tested on: DU-145 prostate
TK-10 renal = tested on: TK-10 renal
HCT-116 colon = tested on: HCT-116 colon
SF-539 CNS = tested on: SF-539 CNS
SK-OV-3 ovarian = tested on: SK-OV-3 ovarian
IGROV1 ovarian = tested on: IGROV1 ovarian
UACC-257 melanoma = tested on: UACC-257 melanoma
HL-60(TB) leukemia = tested on: HL-60(TB) leukemia
OVCAR-8 ovarian = tested on: OVCAR-8 ovarian
OVCAR-5 ovarian = tested on: OVCAR-5 ovarian
A549 NSCLC = tested on: A549 NSCLC
RPMI-8226 leukemia = tested on: RPMI-8226 leukemia
U251 CNS = tested on: U251 CNS
SK-MEL-2 melanoma = tested on: SK-MEL-2 melanoma
EKVX NSCLC = tested on: EKVX NSCLC
A498 renal = tested on: A498 renal
KM12 colon = tested on: KM12 colon
SF-295 CNS = tested on: SF-295 CNS
MCF7 breast = tested on: MCF7 breast
SK-MEL-5 melanoma = tested on: SK-MEL-5 melanoma
K-562 leukemia = tested on: K-562 leukemia
UO-31 renal = tested on: UO-31 renal
BT-549 breast = tested on: BT-549 breast
RXF 393 renal = tested on: RXF 393 renal
OVCAR-3 ovarian = tested on: OVCAR-3 ovarian
NCI-H226 lung = tested on: NCI-H226 lung
MDA-MB-468 breast = tested on: MDA-MB-468 breast
CCRF-CEM leukemia = tested on: CCRF-CEM leukemia
SNB-19 CNS = tested on: SNB-19 CNS

Q: What does the source list for COc1ccc(-c2nc3cc(C)ccc3n2CC(=O)N=Nc2c(O)[nH]c3ccc(Br)cc23)cc1?
A: GI50 (HCC-2998 colon): 2.75 µM; TGI (HCC-2998 colon): 16.4 µM; GI50 (COLO 205 colon): 2.29 µM; TGI (COLO 205 colon): 8.06 µM; GI50 (NCI/ADR-RES ovarian): 1.88 µM; TGI (NCI/ADR-RES ovarian): 5 µM; GI50 (MDA-MB-435): 2.12 µM; TGI (MDA-MB-435): 7.52 µM; GI50 (HOP-62 NSCLC): 2.31 µM; TGI (HOP-62 NSCLC): 9.66 µM; GI50 (SW-620 colon): 2.4 µM; TGI (SW-620 colon): 9.15 µM; GI50 (SNB-75 CNS): 1.61 µM; TGI (SNB-75 CNS): 12.7 µM; GI50 (HT29 colon): 1.98 µM; TGI (HT29 colon): 4.36 µM; GI50 (SN12C renal): 2.16 µM; TGI (SN12C renal): 10.6 µM; GI50 (MOLT-4 leukemia): 3.22 µM; TGI (MOLT-4 leukemia): 44.5 µM; GI50 (MDA-MB-231 breast): 2.17 µM; TGI (MDA-MB-231 breast): 7.97 µM; GI50 (NCI-H23 lung): 1.93 µM; TGI (NCI-H23 lung): 5.88 µM; GI50 (CAKI-1 renal): 3.6 µM; TGI (CAKI-1 renal): 29.1 µM; GI50 (M14 melanoma): 1.6 µM; TGI (M14 melanoma): 3.49 µM; GI50 (SK-MEL-28 melanoma): 1.51 µM; TGI (SK-MEL-28 melanoma): 2.96 µM; GI50 (OVCAR-4 ovarian): 2.76 µM; TGI (OVCAR-4 ovarian): 11.2 µM; GI50 (SF-268 CNS): 2.94 µM; TGI (SF-268 CNS): 31.7 µM; GI50 (PC-3 prostate): 2.07 µM; TGI (PC-3 prostate): 14.5 µM; GI50 (HOP-92 NSCLC): 1.34 µM; TGI (HOP-92 NSCLC): 4.59 µM; GI50 (UACC-62 melanoma): 1.78 µM; TGI (UACC-62 melanoma): 6.09 µM; GI50 (NCI-H522 lung): 7.39 µM; TGI (NCI-H522 lung): 31.1 µM; GI50 (ACHN renal): 2.38 µM; TGI (ACHN renal): 8.75 µM; GI50 (LOX IMVI melanoma): 1.48 µM; TGI (LOX IMVI melanoma): 3.29 µM; GI50 (HCT-15 colon): 2.83 µM; TGI (HCT-15 colon): 16.9 µM; GI50 (HS 578T breast): 1.96 µM; TGI (HS 578T breast): 6.44 µM; GI50 (786-0 renal): 3.48 µM; TGI (786-0 renal): 16.6 µM; GI50 (T-47D breast): 2.85 µM; TGI (T-47D breast): 34.6 µM; GI50 (NCI-H460 lung): 1.86 µM; TGI (NCI-H460 lung): 4.1 µM; GI50 (MALME-3M melanoma): 1.59 µM; TGI (MALME-3M melanoma): 3.2 µM; GI50 (DU-145 prostate): 3.29 µM; TGI (DU-145 prostate): 16.1 µM; GI50 (TK-10 renal): 3.63 µM; TGI (TK-10 renal): 20.6 µM; GI50 (HCT-116 colon): 1.88 µM; TGI (HCT-116 colon): 4.49 µM; GI50 (SF-539 CNS): 1.55 µM; TGI (SF-539 CNS): 3.36 µM; GI50 (SK-OV-3 ovarian): 3.92 µM; TGI (SK-OV-3 ovarian): 38.3 µM; GI50 (IGROV1 ovarian): 2.93 µM; TGI (IGROV1 ovarian): 18.2 µM; GI50 (UACC-257 melanoma): 1.95 µM; TGI (UACC-257 melanoma): 6.33 µM; GI50 (HL-60(TB) leukemia): 5.51 µM; TGI (HL-60(TB) leukemia): > 84.5 µM; GI50 (OVCAR-8 ovarian): 1.58 µM; TGI (OVCAR-8 ovarian): 3.49 µM; GI50 (OVCAR-5 ovarian): 2.56 µM; TGI (OVCAR-5 ovarian): 13.6 µM; GI50 (A549 NSCLC): 1.75 µM; TGI (A549 NSCLC): 3.95 µM; GI50 (RPMI-8226 leukemia): 2.98 µM; TGI (RPMI-8226 leukemia): 42.2 µM; GI50 (U251 CNS): 1.64 µM; TGI (U251 CNS): 3.55 µM; GI50 (SK-MEL-2 melanoma): 3.28 µM; TGI (SK-MEL-2 melanoma): 18.6 µM; GI50 (EKVX NSCLC): 2.1 µM; TGI (EKVX NSCLC): 11.2 µM; GI50 (A498 renal): 24.9 µM; TGI (A498 renal): 60.1 µM; GI50 (KM12 colon): 2.81 µM; TGI (KM12 colon): 16 µM; GI50 (SF-295 CNS): 2.93 µM; TGI (SF-295 CNS): 14.2 µM; GI50 (MCF7 breast): 2.23 µM; TGI (MCF7 breast): 10.2 µM; GI50 (SK-MEL-5 melanoma): 2.59 µM; TGI (SK-MEL-5 melanoma): 8.3 µM; GI50 (K-562 leukemia): 3.66 µM; TGI (K-562 leukemia): > 84.5 µM; GI50 (UO-31 renal): 19.4 µM; TGI (UO-31 renal): > 84.5 µM; GI50 (BT-549 breast): 2.05 µM; TGI (BT-549 breast): 5.92 µM; GI50 (RXF 393 renal): 1.33 µM; TGI (RXF 393 renal): 3.54 µM; GI50 (OVCAR-3 ovarian): 1.93 µM; TGI (OVCAR-3 ovarian): 4.29 µM; GI50 (NCI-H226 lung): 1.97 µM; TGI (NCI-H226 lung): 7.23 µM; GI50 (MDA-MB-468 breast): 1.88 µM; TGI (MDA-MB-468 breast): 4.41 µM; GI50 (CCRF-CEM leukemia): 3.05 µM; TGI (CCRF-CEM leukemia): 32.1 µM; GI50 (SNB-19 CNS): 3.14 µM; TGI (SNB-19 CNS): 49.6 µM
